The values below come from article PMC3017236 (Clinical cancer research : an official journal of the …, 2010).

The conditions of data set [1]: mouse, in vivo.
In data set [2] the test system is Bcrp1/Abcg2. The conditions noted are these: mouse, in vivo.
The subject of the next data set is P-gp (Mdr1a/b). The conditions noted are these: mouse, in vivo, po, 50 mg/kg.
Data set [3] relates to P-gp (Mdr1a/b) and Bcrp1/Abcg2. The conditions noted are these: mouse, in vivo.
The test system of data set [4] is Mrp4/Abcc4. Briefly: Brain microdialysis. Conditions: Abcc4−/− mice, 50 mg/kg oral erlotinib, mean ± SD.
For data set [5], the target named is T1, organic anion transporter-3 (OAT3) (Homo sapiens, UniProt Q8TCC7).
T1 sequence (Q8TCC7 1-542): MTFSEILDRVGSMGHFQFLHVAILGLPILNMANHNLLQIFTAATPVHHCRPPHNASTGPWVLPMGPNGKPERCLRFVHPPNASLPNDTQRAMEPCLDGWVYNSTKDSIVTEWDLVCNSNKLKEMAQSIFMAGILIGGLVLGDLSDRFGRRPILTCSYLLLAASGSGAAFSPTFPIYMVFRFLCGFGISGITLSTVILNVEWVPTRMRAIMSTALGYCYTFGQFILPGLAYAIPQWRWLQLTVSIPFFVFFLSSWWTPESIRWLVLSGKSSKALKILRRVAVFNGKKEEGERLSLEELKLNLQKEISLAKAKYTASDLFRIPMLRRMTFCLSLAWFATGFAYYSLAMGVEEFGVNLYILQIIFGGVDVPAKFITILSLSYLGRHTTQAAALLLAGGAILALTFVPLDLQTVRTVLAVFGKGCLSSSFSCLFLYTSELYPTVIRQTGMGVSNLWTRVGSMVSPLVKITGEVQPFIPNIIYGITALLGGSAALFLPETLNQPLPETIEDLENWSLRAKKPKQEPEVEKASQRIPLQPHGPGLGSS
Briefly: Uptake in HEK-293 cells transfected with OAT3 vs empty vector. The conditions noted are these: HEK-293/OAT3, 5 minutes incubation, 0.5 μg/mL.

A further data set has as its target human ABCB1 (P-gp/MDR1) (Homo sapiens, UniProt P08183). Briefly: Intracellular accumulation in LLCPK1-MDR1 cells vs LLCPK1 cells.
Data set [6] is classed as in vivo, mouse. Conditions: for Mean AUC0-24,Plasma compared to wild-type mice: mouse, in vivo, po, 50 mg/kg.
The target in another data set is T2, OAT2 (Homo sapiens, UniProt Q9Y694).
T2 sequence (Q9Y694 1-548): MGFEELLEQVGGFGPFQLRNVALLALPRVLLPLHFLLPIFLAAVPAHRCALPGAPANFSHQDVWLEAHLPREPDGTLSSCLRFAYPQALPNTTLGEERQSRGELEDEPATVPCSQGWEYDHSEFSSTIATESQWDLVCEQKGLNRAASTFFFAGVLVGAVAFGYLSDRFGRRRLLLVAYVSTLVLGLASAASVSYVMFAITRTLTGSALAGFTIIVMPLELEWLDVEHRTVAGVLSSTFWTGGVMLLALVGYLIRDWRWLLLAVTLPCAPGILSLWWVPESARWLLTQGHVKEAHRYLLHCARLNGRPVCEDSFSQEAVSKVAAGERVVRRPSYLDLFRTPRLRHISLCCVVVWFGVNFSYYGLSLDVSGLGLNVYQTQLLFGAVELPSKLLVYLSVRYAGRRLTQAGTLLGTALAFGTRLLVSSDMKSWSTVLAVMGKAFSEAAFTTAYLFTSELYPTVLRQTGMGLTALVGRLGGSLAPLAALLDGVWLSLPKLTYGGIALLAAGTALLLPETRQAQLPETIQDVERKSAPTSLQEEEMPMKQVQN
Briefly: Uptake in HEK-293 cells transfected with OAT2 vs empty vector. The conditions noted are these: HEK-293/OAT2. It is filed as in vitro ADME.

The target of a further data set is T3, OCT1 (Homo sapiens, UniProt O15245).
T3 sequence (O15245 1-554): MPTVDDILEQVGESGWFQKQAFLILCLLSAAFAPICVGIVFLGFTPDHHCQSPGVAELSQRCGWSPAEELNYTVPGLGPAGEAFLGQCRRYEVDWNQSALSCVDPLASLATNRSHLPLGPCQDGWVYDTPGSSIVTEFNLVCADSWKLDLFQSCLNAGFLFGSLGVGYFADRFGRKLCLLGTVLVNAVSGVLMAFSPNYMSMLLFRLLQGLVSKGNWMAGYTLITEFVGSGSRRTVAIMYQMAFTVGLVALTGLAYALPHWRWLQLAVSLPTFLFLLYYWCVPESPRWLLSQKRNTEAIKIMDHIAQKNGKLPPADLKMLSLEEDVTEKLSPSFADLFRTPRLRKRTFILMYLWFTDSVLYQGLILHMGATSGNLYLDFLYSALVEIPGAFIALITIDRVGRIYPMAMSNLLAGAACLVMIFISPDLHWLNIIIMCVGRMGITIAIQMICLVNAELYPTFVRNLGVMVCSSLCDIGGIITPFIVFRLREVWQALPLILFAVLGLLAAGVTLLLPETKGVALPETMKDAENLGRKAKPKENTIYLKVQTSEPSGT
Kind of data set: Uptake in HEK-293 cells transfected with OCT1 vs empty vector. The conditions noted are these: HEK-293/OCT1. The class given is in vitro ADME.

The subject of data set [7] is Bcrp1/Abcg2. Kind of data set: in vivo. Conditions: mouse, brain ECF (relative to unbound plasma), po, 50 mg/kg.
In data set [8] the test system is P-gp (Mdr1a/b) and Bcrp1/Abcg2. Kind of data set: in vivo. The conditions noted are these: mouse, brain ECF (relative to unbound plasma), po, 50 mg/kg.
Data set [9] deals with Mrp4/Abcc4. Kind of data set: in vivo. The conditions noted are these: mouse, brain ECF (relative to unbound plasma), po, 50 mg/kg.
The next data set is described as follows: in vitro. The conditions noted are these: mouse, plasma.

Entries after “also recorded” stand apart in the source; their conditions may differ. Read-outs that look alike come from different tables or passages of the source.

One may read the Kp as tissue or fluid exposure divided by exposure in the circulation. What is called fraction unbound is the share of the substance not bound to proteins or other matrix.

human ABCB1 (P-gp/MDR1), sequence (P08183 whole entry): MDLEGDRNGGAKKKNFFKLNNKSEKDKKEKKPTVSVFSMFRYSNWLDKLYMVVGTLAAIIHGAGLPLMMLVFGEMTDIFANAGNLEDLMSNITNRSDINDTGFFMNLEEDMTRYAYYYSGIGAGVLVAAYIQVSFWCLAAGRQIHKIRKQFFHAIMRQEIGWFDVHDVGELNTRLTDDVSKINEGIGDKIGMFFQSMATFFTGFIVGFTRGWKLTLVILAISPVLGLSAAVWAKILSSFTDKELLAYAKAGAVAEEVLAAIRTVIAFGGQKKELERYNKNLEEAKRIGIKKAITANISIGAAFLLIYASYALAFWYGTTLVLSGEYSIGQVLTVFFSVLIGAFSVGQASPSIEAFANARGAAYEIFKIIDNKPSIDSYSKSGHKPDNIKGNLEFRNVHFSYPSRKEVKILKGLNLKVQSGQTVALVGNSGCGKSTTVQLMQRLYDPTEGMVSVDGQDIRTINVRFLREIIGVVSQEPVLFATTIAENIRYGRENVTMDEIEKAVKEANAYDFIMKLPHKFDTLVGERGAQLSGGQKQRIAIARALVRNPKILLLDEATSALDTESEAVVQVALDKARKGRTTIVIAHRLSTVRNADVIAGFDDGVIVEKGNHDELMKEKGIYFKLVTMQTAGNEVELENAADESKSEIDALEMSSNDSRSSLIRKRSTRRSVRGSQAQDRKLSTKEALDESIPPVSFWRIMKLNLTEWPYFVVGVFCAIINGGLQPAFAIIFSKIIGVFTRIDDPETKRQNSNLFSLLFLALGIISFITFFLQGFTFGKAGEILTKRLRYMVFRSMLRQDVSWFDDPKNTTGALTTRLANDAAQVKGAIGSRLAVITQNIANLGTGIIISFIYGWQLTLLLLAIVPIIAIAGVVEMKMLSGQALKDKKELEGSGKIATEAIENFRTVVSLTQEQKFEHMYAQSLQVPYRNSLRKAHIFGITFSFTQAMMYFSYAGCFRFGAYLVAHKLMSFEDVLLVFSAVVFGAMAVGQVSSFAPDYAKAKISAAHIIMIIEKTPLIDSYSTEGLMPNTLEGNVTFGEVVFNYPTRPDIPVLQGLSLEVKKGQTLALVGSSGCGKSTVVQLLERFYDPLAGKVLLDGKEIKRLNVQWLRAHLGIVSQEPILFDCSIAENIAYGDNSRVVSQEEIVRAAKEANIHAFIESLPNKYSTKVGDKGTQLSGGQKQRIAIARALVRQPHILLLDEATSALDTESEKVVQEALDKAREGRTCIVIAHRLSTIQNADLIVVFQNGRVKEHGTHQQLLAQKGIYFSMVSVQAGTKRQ

`C#Cc1cccc(Nc2ncnc3cc(OCCOC)c(OCCO)cc23)c1` [OSI-420]: the “Penetration of unbound drug from plasma across the BBB” value in [1] is reported as 7%. Also, the “PBrain (brain ECF-to-unbound plasma AUC0-24 ratio)” value in data set [1] (po, 50 mg/kg) is recorded as 0.07±0.02; in the data set on P-gp (Mdr1a/b) it was 0.04±0.02; in the data set on Mrp4/Abcc4 [4], 0.08 ± 0.06. The “Brain penetration relative to wild-type mice” value came out at 7 fold in the data set on Bcrp1/Abcg2 [2] and 4 fold in data set [3]. In addition, in [5], the “Uptake vs empty vector HEK-293 cells” value is listed as “significantly higher”. For the same molecule, the “Effect of elacridar on intracellular accumulation” value at human ABCB1 (P-gp/MDR1) (LLCPK1-MDR1 cells, pre-incubation 30 minutes with elacridar (4 μM)) is reported as “significantly increased”. Further, the “Intracellular accumulation vs control cells” value at human ABCB1 (P-gp/MDR1) (LLCPK1-MDR1 vs LLCPK1, 0.5 μg/mL, 37°C) is “lower accumulation; also recorded: significantly reduced”.

Consider `C#Cc1cccc(Nc2ncnc3cc(OCCOC)c(OCCOC)cc23)c1` [erlotinib, Erlotinib], for which the “Mean AUC0-24,Plasma compared to wild-type mice” value in data set [6] (Abcc4−/−) is 0.9 fold; in data set [6] (Abcg2−/−), 1.25 fold; in data set [6] (Mdr1a/b−/−), 0.9 fold; in data set [6] (Mdr1a/b−/−Abcg2−/−) it was 1.3 fold. Further, the “Tolerability of single dose” value in [6] (single oral dose 50 mg/kg, all strains) is recorded as “tolerated well”. Moreover, the Transport by transporter entry at OAT2 and on OCT1 was “not found to transport” each time. Further, the results for the Kp (in the data set on Bcrp1/Abcg2 [7]; in data set [8]; in the data set with Mrp4/Abcc4 [9]) were 1.4 ± 0.9, 0.7 ± 0.26 and 0.32 ± 0.24, respectively. For the same molecule, the fraction unbound at 10 h in “in vitro” was 0.048. Also, the “Uptake vs empty vector HEK-293 cells” value in [5] was “significantly higher”; in data set [5] (listed as Erlotinib), “higher”.
